Test results taken from patent US20220372017A1, “HCK DEGRADERS AND USES THEREOF” (DANA-FARBER CANCER INSTITUTE, INC., priority 2019, published 2022).

Experiments:
Assay type in all cases: cell-based
FYN = biological target: T1, FYN (Homo sapiens, UniProt P06241); assay: Proteomics, degradation of target kinases in MOLT4 cells: FYN; conditions: cell line MOLT4 (FIGS. 7A-7B)
T1 construct: proteomics data on the degradation of target kinases in cell line MOLT4; endogenous in cells; host or cells: MOLT4
Excerpt: (§1) FIGS. 7A-7B show proteomics data on the degradation of target kinases in cell line MOLT4 (human T lymphoblast; acute lymphoblastic leukemia) using treatment with exemplary compounds SB1-G-181 and SB1-G-200. FIG. 7A indicates in the bottom left corner the exemplary kinase targets (FYN, SRC, BLK, LCK, CSK, ABL1, ABL2, LIMK1, LATS1) in cell line MOLT4 which were degraded by exemplary compound SB1-G-181. FIG. 7B indicates in the bottom left corner the exemplary kinase targets (FYN, SRC, BLK, LCK, CSK, ABL1, ABL2, LIMK1, LATS1) in cell line MOLT4 which were degraded by exemplary compound SB1-G-200.

SRC = biological target: T2, SRC (Homo sapiens, UniProt P12931); assay: Proteomics, degradation of target kinases in MOLT4 cells: SRC; conditions: cell line MOLT4 (FIGS. 7A-7B)
T2 construct: proteomics data on the degradation of target kinases in cell line MOLT4; endogenous in cells; host or cells: MOLT4
Excerpt: as §1

BLK = biological target: T3, BLK (Homo sapiens, UniProt P51451); assay: Proteomics, degradation of target kinases in MOLT4 cells: BLK; conditions: cell line MOLT4 (FIGS. 7A-7B)
T3 construct: proteomics data on the degradation of target kinases in cell line MOLT4; endogenous in cells; host or cells: MOLT4
Excerpt: as §1

LCK = biological target: T4, LCK (Homo sapiens, UniProt P06239); assay: Proteomics, degradation of target kinases in MOLT4 cells: LCK; conditions: cell line MOLT4 (FIGS. 7A-7B)
T4 construct: proteomics data on the degradation of target kinases in cell line MOLT4; endogenous in cells; host or cells: MOLT4
Excerpt: as §1

CSK = biological target: T5, CSK (Homo sapiens, UniProt P41240); assay: Proteomics, degradation of target kinases in MOLT4 cells: CSK; conditions: cell line MOLT4 (FIGS. 7A-7B)
T5 construct: proteomics data on the degradation of target kinases in cell line MOLT4; endogenous in cells; host or cells: MOLT4
Excerpt: as §1

ABL1 = biological target: T6, ABL1 (Homo sapiens, UniProt P00519); assay: Proteomics, degradation of target kinases in MOLT4 cells: ABL1; conditions: cell line MOLT4 (FIGS. 7A-7B)
T6 construct: proteomics data on the degradation of target kinases in cell line MOLT4; endogenous in cells; host or cells: MOLT4
Excerpt: as §1

ABL2 = biological target: T7, ABL2 (Homo sapiens, UniProt P42684); assay: Proteomics, degradation of target kinases in MOLT4 cells: ABL2; conditions: cell line MOLT4 (FIGS. 7A-7B)
T7 construct: proteomics data on the degradation of target kinases in cell line MOLT4; endogenous in cells; host or cells: MOLT4
Excerpt: as §1

LIMK1 = biological target: T8, LIMK1 (Homo sapiens, UniProt P53667); assay: Proteomics, degradation of target kinases in MOLT4 cells: LIMK1; conditions: cell line MOLT4 (FIGS. 7A-7B)
T8 construct: proteomics data on the degradation of target kinases in cell line MOLT4; endogenous in cells; host or cells: MOLT4
Excerpt: as §1

LATS1 = biological target: T9, LATS1 (Homo sapiens, UniProt O95835); assay: Proteomics, degradation of target kinases in MOLT4 cells: LATS1; conditions: cell line MOLT4 (FIGS. 7A-7B)
T9 construct: proteomics data on the degradation of target kinases in cell line MOLT4; endogenous in cells; host or cells: MOLT4
T9 sequence (O95835 1-1130): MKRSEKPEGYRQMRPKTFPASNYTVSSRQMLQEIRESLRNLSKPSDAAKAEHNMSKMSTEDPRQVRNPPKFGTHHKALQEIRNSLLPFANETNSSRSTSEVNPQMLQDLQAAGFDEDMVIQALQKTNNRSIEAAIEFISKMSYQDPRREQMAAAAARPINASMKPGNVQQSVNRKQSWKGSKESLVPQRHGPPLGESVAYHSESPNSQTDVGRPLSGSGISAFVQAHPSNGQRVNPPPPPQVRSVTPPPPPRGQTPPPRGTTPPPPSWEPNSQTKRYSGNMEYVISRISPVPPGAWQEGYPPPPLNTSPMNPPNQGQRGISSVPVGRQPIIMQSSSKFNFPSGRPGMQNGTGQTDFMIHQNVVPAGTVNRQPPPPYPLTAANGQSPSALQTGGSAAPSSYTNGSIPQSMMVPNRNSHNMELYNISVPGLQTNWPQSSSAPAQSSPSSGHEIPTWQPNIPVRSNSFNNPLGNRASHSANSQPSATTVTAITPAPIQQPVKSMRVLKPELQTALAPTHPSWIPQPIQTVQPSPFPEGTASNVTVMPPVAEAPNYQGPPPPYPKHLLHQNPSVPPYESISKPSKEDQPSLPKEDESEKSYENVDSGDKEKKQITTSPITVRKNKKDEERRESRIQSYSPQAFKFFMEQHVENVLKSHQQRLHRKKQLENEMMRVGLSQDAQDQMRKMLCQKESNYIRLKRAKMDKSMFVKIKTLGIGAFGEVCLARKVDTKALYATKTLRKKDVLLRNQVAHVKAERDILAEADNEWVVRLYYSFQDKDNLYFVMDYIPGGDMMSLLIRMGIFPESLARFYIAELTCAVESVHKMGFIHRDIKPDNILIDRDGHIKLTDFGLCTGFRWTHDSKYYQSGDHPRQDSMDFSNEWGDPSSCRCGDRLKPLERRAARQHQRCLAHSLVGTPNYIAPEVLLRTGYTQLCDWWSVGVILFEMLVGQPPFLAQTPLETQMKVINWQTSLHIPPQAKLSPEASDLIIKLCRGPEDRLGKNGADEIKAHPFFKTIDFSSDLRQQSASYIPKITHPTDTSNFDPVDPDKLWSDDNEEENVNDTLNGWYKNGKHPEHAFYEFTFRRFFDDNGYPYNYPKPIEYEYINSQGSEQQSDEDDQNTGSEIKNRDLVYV
Excerpt: as §1

HCK = biological target: T10, HCK (Homo sapiens, UniProt P08631); assay: Western blot protein degradation assessment, HCK
T10 construct: following treatment of MYD88 mutated BCWM.1 cells; endogenous in cells; host or cells: BCWM.1 WM cells (parental and vector/BTK-WT/BTK-C481S transduced); TMD8 ABC-DLBCL cells (transduced)
Procedure: (§2) SK-6-1 was used as a degrader control compound.
(§3) SK-6-1 was used as a degrader control compound. […] “ABC-DLBCL” is activated B-cell (ABC) lymphoma, diffuse large B-cell lymphoma (DLBCL).
(§4) Western blots were performed for the detection of protein degradation following the cell treatments with HCK degraders using antibodies for HCK (Cell Signaling), BTK (Cell Signaling) or Phospho-BTK (Tyr223) (Abcam). GAPDH was used for determination of protein loading.

BTK [1] = biological target: T11, BTK (Homo sapiens, UniProt Q06187); assay: Western blot protein degradation assessment, BTK; conditions: MYD88 mutated BCWM.1 cells, 6 hours, Western blot (FIG. 4)
T11 construct: following treatment of MYD88 mutated BCWM.1 cells; endogenous in cells
Procedure: as §2, §3, §4

BTK [2] = biological target: T12, BTK (Homo sapiens, UniProt Q06187, C481S); assay: Western blot protein degradation assessment, BTK; conditions: BTK^C481S mutant transduced BCWM.1 WM cells, 6 hours (FIG. 5)
T12 construct: following treatment of MYD88 mutated BCWM.1 cells; endogenous in cells
Procedure: as §2, §3, §4

BTK [3] = assay: Western blot protein degradation assessment, BTK; conditions: vector only, BTK^WT or BTK^C481S transduced TMD8 ABC-DLBCL cells, 6 hours (FIG. 6)
Procedure: as §2, §3, §4

Phospho-BTK (Tyr223) = assay: Western blot, Phospho-BTK (Tyr223); conditions: vector only
Procedure: as §2, §3, §4

[4] = MYD88 mutated BCWM.1 cells, 6 hours, Western blot (FIG. 4)

T11 sequence (Q06187 2-659): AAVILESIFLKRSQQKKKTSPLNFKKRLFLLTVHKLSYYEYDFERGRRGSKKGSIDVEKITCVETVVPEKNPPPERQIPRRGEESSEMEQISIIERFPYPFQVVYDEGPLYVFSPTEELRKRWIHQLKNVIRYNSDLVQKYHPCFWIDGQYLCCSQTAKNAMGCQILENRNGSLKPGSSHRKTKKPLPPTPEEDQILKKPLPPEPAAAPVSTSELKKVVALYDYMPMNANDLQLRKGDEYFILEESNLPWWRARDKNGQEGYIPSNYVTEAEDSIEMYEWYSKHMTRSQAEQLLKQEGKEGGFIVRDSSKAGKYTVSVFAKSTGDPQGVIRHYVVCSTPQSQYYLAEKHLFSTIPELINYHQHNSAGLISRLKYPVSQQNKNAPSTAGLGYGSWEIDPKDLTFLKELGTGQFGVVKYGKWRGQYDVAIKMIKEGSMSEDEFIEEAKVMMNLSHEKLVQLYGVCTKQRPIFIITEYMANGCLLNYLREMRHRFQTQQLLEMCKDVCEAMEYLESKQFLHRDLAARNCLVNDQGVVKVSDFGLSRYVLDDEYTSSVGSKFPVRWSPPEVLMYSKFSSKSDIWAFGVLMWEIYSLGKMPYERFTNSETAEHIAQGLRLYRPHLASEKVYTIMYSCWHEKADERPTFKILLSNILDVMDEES
T3 sequence (P51451 whole entry): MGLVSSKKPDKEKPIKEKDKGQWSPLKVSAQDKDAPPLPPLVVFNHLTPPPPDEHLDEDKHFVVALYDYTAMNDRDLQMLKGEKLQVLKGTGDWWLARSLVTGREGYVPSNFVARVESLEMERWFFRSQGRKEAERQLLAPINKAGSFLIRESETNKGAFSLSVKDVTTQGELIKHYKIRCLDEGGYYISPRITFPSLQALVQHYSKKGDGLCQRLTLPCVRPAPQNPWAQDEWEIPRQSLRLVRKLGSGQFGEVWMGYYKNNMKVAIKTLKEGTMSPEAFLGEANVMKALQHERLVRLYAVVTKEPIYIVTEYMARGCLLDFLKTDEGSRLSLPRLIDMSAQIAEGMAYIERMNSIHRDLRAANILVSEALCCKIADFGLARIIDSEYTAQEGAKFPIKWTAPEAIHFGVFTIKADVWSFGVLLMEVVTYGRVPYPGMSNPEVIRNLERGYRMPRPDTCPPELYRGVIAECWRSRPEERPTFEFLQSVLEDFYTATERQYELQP
T2 sequence (P12931 whole entry): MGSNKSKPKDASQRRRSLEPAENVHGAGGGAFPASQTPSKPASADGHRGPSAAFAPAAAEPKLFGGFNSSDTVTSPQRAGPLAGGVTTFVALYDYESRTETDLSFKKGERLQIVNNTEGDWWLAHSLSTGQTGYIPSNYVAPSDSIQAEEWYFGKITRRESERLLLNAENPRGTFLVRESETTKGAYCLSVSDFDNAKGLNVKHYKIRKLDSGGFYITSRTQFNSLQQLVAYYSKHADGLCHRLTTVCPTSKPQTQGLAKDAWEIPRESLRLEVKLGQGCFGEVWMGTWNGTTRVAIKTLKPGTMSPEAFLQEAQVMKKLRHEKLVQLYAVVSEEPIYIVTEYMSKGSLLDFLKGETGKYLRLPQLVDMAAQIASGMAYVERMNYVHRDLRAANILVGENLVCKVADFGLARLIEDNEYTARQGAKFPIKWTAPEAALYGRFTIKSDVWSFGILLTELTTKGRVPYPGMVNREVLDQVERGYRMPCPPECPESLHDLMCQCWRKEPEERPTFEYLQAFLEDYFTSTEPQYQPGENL
T1 sequence (P06241 whole entry): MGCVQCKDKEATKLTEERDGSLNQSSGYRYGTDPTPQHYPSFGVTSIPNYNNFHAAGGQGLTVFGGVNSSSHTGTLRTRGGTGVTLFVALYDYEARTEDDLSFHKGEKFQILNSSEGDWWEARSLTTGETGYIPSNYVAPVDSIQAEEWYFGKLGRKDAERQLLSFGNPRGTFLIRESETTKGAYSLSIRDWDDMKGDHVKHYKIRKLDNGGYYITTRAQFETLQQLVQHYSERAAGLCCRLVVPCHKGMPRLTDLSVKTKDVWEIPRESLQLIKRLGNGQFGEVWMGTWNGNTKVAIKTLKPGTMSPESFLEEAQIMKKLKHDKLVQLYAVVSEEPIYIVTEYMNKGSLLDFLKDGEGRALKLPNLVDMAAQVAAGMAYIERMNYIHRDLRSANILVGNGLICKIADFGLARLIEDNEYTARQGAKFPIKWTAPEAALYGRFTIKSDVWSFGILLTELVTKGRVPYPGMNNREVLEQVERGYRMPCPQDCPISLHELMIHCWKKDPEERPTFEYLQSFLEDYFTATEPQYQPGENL
T4 sequence (P06239 whole entry): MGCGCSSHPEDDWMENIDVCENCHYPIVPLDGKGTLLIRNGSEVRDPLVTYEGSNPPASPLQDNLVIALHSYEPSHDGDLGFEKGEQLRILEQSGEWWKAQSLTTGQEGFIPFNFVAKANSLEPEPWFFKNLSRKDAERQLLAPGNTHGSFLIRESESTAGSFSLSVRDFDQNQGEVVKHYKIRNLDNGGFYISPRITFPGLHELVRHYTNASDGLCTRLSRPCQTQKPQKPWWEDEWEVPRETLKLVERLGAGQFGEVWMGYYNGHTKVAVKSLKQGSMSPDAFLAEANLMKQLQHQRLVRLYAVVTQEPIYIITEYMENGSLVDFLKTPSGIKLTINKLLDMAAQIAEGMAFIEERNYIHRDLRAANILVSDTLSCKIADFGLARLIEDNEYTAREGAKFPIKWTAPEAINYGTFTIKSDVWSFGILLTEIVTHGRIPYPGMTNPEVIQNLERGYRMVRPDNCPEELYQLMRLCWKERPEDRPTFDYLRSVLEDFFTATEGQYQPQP
T6 sequence (P00519 whole entry): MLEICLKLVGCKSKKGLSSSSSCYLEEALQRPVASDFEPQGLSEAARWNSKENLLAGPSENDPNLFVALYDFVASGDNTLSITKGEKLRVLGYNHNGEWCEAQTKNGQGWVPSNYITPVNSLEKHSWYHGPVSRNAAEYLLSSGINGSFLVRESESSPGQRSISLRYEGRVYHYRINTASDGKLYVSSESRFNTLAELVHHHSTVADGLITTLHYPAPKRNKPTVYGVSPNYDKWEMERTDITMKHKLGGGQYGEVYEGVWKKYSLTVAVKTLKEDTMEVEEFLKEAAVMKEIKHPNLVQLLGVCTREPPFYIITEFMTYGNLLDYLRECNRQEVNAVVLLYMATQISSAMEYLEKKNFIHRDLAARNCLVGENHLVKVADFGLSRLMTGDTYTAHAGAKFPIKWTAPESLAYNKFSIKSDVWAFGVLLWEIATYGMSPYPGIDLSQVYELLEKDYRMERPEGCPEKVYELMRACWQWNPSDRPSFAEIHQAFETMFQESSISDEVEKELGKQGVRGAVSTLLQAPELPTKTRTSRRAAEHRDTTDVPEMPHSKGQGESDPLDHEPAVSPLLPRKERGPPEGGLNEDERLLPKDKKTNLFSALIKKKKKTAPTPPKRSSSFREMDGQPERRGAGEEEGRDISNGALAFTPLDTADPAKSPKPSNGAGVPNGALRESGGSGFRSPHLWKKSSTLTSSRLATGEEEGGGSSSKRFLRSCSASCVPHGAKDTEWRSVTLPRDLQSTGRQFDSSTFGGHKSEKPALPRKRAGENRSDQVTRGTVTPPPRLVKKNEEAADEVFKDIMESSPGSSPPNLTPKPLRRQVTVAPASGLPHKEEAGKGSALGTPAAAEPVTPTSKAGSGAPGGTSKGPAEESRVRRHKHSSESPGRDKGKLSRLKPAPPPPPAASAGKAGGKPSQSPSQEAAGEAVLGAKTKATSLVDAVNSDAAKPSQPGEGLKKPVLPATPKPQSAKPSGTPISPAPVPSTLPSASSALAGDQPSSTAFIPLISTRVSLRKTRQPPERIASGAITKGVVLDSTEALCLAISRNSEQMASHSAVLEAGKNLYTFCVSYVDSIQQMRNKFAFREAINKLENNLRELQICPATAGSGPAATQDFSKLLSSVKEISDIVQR
T8 sequence (P53667 whole entry): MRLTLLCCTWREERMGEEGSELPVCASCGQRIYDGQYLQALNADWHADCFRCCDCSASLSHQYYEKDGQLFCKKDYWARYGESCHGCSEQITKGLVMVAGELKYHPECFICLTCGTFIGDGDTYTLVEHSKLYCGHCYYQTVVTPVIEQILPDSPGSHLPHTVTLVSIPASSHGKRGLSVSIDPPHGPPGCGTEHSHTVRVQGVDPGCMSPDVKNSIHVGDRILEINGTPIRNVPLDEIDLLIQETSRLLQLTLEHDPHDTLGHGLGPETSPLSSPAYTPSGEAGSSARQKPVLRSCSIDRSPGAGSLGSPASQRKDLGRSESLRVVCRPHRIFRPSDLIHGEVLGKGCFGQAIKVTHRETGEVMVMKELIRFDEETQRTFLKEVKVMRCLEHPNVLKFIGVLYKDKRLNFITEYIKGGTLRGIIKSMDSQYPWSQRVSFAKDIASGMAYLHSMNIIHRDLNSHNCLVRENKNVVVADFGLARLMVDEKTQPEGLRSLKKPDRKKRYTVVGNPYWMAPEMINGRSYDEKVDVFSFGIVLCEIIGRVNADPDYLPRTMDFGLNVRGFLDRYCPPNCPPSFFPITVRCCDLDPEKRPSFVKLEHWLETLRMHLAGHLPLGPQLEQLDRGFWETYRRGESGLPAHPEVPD
T12 sequence (Q06187 2-659 C481S): as the sequence (Q06187 2-659) above, with C480S counted along it

Row | degradation of FYN (proteomics) (FYN) | degradation of SRC (proteomics) (SRC) | degradation of BLK (proteomics) (BLK) | degradation of LCK (proteomics) (LCK) | degradation of CSK (proteomics) (CSK) | degradation of ABL1 (proteomics) (ABL1) | degradation of ABL2 (proteomics) (ABL2) | degradation of LIMK1 (proteomics) (LIMK1) | degradation of LATS1 (proteomics) (LATS1) | degradation of HCK (HCK; [4]) | degradation of BTK (BTK [1]) | degradation of HCK (HCK; vector only, BTK^WT or BTK^C481S transduced BCWM.1 WM cells, 6 hours (FIG. 5)) | degradation of HCK (HCK; vector only, BTK^WT or BTK^C481S transduced TMD8 ABC-DLBCL cells, 6 hours (FIG. 6)) | degradation of BTK (BTK [2]) | Compound | degradation of BTK (BTK [3]) | BTK phosphorylation at Tyr-223 (Phospho-BTK (Tyr223); BTK^WT or BTK^C481S transduced BCWM.1 WM cells, 6 hours (FIG. 5)) | BTK phosphorylation at Tyr-223 (Phospho-BTK (Tyr223); BTK^WT or BTK^C481S transduced TMD8 ABC-DLBCL cells, 6 hours (FIG. 6))
1 | degraded | degraded | degraded | degraded | degraded | degraded | degraded | degraded | degraded |  |  |  |  |  | Nc1ncnc2c1c(-c1ccc(Oc3ccccc3)cc1)nn2[C@H]1CC[C@H](N2CCN(CCOCCNC(=O)CNc3cccc4c3C(=O)N(C3CCC(=O)NC3=O)C4=O)CC2)CC1 (stereo partly drawn) [SB1-G-181, N-(2-(2-(4-((1r,4r)-4-(4-amino-3-(4-phenoxyphenyl)-1H-pyrazolo[3,4-d]pyrimidin-1-yl)cyclohexyl)piperazin-1-yl)ethoxy)ethyl)-2-(2-(2,6-dioxopiperidin-3-yl)-1,3-dioxoisoindolin-4-ylamino)acetamide] |  |  | 
2 |  |  |  |  |  |  |  |  |  | effective degradation | effective degradation |  |  |  | Nc1ncnc2c1c(-c1ccc(Oc3ccccc3)cc1)nn2C1CCC(N2CCN(CCOCCNC(=O)CNc3cccc4c3C(=O)N(C3CCC(=O)NC3=O)C4=O)CC2)CC1 (stereo not drawn) [SB1-G-181-P1] |  |  | 
3 |  |  |  |  |  |  |  |  |  | effective degradation | effective degradation |  |  |  | Nc1ncnc2c1c(-c1ccc(Oc3ccccc3)cc1)nn2[C@H]1CC[C@H](N2CCN(CCOCCOCCOCCNC(=O)CNc3cccc4c3C(=O)N(C3CCC(=O)NC3=O)C4=O)CC2)CC1 (stereo partly drawn) [SB1-G-182-P1] |  |  | 
4 |  |  |  |  |  |  |  |  |  | effective degradation | effective degradation | effective degradation | effective degradation | diminished | Nc1ncnc2c1c(-c1ccc(Oc3ccccc3)cc1)nn2[C@H]1CC[C@H](N2CCN(CCOCCOCCNC(=O)CNc3cccc4c3C(=O)N(C3CCC(=O)NC3=O)C4=O)CC2)CC1 (stereo partly drawn) [SB1-G-185-P1] | effective degradation | blocked | blocked
5 | degraded | degraded | degraded | degraded | degraded | degraded | degraded | degraded | degraded |  |  |  |  |  | Nc1ncnc2c1c(-c1ccc(Oc3ccccc3)cc1)nn2[C@H]1CC[C@H](N2CCN(CCCCCCNC(=O)COc3cccc4c3C(=O)N(C3CCC(=O)NC3=O)C4=O)CC2)CC1 (stereo partly drawn) [SB1-G-200] |  |  | 
